# Source: article PMC3361616 (European Journal of Medicinal Chemistry, 2012)
# Counter-ions that a name gives are not always drawn.
# Columns and labels:
# 5HT1A receptor = target: T1, 5HT1A receptor (Homo sapiens, UniProt P08908); experiment: NIMH-PDSP radioligand binding, 5HT1A; settings: for fold increase in binding affinity to the 5HT1A receptor: over compound 8
# T1 sequence (P08908 1-422): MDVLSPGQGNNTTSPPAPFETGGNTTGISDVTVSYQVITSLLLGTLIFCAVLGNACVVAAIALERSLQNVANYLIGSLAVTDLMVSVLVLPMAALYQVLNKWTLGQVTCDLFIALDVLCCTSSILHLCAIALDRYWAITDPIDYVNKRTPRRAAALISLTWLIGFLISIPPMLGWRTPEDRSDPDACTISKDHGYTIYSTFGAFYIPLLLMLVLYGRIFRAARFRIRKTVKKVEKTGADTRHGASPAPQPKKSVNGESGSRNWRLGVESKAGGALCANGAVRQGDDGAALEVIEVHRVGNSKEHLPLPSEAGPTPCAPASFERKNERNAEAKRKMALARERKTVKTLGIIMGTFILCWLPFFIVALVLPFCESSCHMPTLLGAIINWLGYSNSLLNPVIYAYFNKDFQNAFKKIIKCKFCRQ
# [1] = target: serotonin transporter (SERT) (Homo sapiens, UniProt P31645); experiment: NIMH-PDSP radioligand binding, SERT
# Sequence of serotonin transporter (SERT) (P31645 whole entry, species assumed): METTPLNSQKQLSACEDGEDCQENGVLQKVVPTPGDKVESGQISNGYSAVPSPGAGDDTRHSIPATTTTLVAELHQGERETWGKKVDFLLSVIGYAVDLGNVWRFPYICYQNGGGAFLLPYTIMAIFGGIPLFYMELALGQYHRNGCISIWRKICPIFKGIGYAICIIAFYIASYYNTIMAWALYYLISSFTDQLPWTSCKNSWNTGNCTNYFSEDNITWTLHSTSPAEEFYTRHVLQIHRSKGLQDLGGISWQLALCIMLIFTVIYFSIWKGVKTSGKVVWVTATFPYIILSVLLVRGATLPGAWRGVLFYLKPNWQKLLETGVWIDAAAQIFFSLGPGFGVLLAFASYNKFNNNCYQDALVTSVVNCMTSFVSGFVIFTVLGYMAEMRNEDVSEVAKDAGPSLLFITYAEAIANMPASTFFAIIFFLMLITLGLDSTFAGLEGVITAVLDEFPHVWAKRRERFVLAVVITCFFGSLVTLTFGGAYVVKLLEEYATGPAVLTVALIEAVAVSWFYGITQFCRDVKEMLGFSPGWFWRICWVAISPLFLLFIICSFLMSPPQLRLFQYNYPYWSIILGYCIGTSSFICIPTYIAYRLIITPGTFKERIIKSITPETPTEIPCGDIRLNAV
# D4 receptor (DAD4) = target: T2, D4 receptor (DAD4) (Homo sapiens, UniProt P21917); experiment: NIMH-PDSP radioligand binding, DAD4
# T2 sequence (P21917 1-419): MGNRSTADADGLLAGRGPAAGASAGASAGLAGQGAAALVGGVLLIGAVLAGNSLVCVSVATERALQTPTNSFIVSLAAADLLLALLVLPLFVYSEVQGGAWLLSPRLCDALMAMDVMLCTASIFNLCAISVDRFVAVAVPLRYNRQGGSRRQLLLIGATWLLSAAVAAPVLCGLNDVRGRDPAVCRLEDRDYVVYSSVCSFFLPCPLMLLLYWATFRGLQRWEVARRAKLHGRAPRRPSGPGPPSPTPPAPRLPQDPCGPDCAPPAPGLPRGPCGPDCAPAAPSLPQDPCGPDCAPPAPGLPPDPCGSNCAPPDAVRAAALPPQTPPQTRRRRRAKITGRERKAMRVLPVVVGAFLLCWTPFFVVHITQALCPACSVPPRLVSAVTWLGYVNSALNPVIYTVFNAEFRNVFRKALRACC
compound,measurement,setting,value
"Clc1ccc(N2CCN(CCCCc3nc4ccccc4s3)CC2)cc1 [Compound 8, 2-(4-(4-(4-Chlorophenyl)piperazin-1-yl)butyl)benzo[d]thiazole]",fold increase in binding to the 5HT1A receptor,5HT1A receptor; compared with compound 4,~3 fold
same,fold decrease in binding at the SERT site,[1]; compared with compound 4,2.6 fold
"c1ccc2c(c1)CCN(CCCCc1nc3ccccc3s1)C2 [Compound 11, 2-(4-Benzo[d]thiazol-2-yl-butyl)-1,2,3,4-tetrahydro-isoquinoline p-toluenesulfonate]",fold increase in binding affinity to the 5HT1A receptor,5HT1A receptor,about 18 fold
"O=C(CCCCN1CCN(c2ccc(Cl)cc2)CC1)c1nc2ccccc2s1 [Compound 20, 1-(Benzo[d]thiazol-2-yl)-5-(4-(4-chlorophenyl)piperazin-1-yl)pentan-1-one hydrochloride]",Ki,D4 receptor (DAD4),100 ± 10 nM
same,fold increase in binding affinity to the 5HT1A receptor,5HT1A receptor,over 3 fold
same,fold enhancement of binding to SERT,[1]; compared with compound 8,over 2 fold
"O=C(CCCCN1CCC(c2ccccc2)CC1)c1nc2ccccc2s1 [Compound 23, 1-(Benzo[d]thiazol-2-yl)-5-(4-phenyl-piperidin-1-yl)-pentan-1-one hydrochloride]",fold decrease in binding affinity at the 5HT1A receptor,5HT1A receptor; compared with compound 22,2 fold
